Laboratory results from PubChem BioAssay (NCI).
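The compound was tested at five concentrations on cells cultured in 96-well plates, with a 48-hour exposure period. GI50 marks 50% less growth. TGI marks complete inhibition of growth.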

How the values were obtained:
Experiment in all cases: NCI tumour cell line growth inhibition, 48 h
CCRF-CEM leukemia = test system: CCRF-CEM leukemia
OVCAR-4 ovarian = test system: OVCAR-4 ovarian
MOLT-4 leukemia = test system: MOLT-4 leukemia
SNB-75 CNS = test system: SNB-75 CNS
PC-3 prostate = test system: PC-3 prostate
MCF7 breast = test system: MCF7 breast
NCI-H460 lung = test system: NCI-H460 lung
SF-539 CNS = test system: SF-539 CNS
OVCAR-3 ovarian = test system: OVCAR-3 ovarian
M14 melanoma = test system: M14 melanoma

Nc1ncnc2c1ncn2Cc1ccc(C23CC4CC(CC(C4)C2)C3)c(OCc2cc(F)c(F)cc2F)c1
GI50 (CCRF-CEM leukemia): 2.4 µM | TGI (CCRF-CEM leukemia): 6.84 µM | GI50 (OVCAR-4 ovarian): 90.8 µM | TGI (OVCAR-4 ovarian): > 100 µM | GI50 (MOLT-4 leukemia): 2.69 µM | TGI (MOLT-4 leukemia): 7.97 µM | GI50 (SNB-75 CNS): > 100 µM | TGI (SNB-75 CNS): > 100 µM | GI50 (PC-3 prostate): 2.17 µM | TGI (PC-3 prostate): 10.9 µM | GI50 (MCF7 breast): 6.37 µM | TGI (MCF7 breast): 30.2 µM | GI50 (NCI-H460 lung): 4.33 µM | TGI (NCI-H460 lung): > 100 µM | GI50 (SF-539 CNS): 50.2 µM | TGI (SF-539 CNS): > 100 µM | GI50 (OVCAR-3 ovarian): 3.27 µM | TGI (OVCAR-3 ovarian): > 100 µM

N#C/C(=N\Nc1ccc(Cl)cc1)C(=O)Nc1cc(-c2ccccc2)nn1-c1ccccc1
GI50 (CCRF-CEM leukemia): 2.27 µM | TGI (CCRF-CEM leukemia): > 100 µM | GI50 (OVCAR-4 ovarian): 2.25 µM | TGI (OVCAR-4 ovarian): 7.62 µM | GI50 (M14 melanoma): 3.7 µM | TGI (M14 melanoma): > 100 µM | GI50 (MOLT-4 leukemia): 3.5 µM | TGI (MOLT-4 leukemia): > 100 µM | GI50 (PC-3 prostate): 2.4 µM | TGI (PC-3 prostate): > 100 µM | GI50 (NCI-H460 lung): 2.51 µM | TGI (NCI-H460 lung): > 100 µM | GI50 (SF-539 CNS): 3.29 µM | TGI (SF-539 CNS): > 100 µM | GI50 (OVCAR-3 ovarian): 2.71 µM | TGI (OVCAR-3 ovarian): > 100 µM

CC1(Cl)CC2OC3(Br)C=CC(C)(O)C2(CC1Br)C3(C)C (centres undefined)
TGI (CCRF-CEM leukemia): > 100 µM | TGI (OVCAR-4 ovarian): > 100 µM | TGI (M14 melanoma): > 100 µM | TGI (MOLT-4 leukemia): > 100 µM | TGI (SNB-75 CNS): > 100 µM | TGI (NCI-H460 lung): > 100 µM | TGI (SF-539 CNS): > 100 µM | TGI (OVCAR-3 ovarian): > 100 µM

CC(C)Nc1ccc(Nc2ccccc2)cc1
GI50 (CCRF-CEM leukemia): 12.5 µM | TGI (CCRF-CEM leukemia): > 100 µM | GI50 (M14 melanoma): 14.9 µM | TGI (M14 melanoma): 33 µM | GI50 (MOLT-4 leukemia): 21.2 µM | TGI (MOLT-4 leukemia): > 100 µM | GI50 (SNB-75 CNS): 21.5 µM | TGI (SNB-75 CNS): > 100 µM | GI50 (PC-3 prostate): 9.2 µM | TGI (PC-3 prostate): 31.3 µM | GI50 (MCF7 breast): 11.1 µM | TGI (MCF7 breast): 31.9 µM | GI50 (NCI-H460 lung): 18.9 µM | TGI (NCI-H460 lung): > 100 µM | GI50 (SF-539 CNS): 5.34 µM | TGI (SF-539 CNS): 38.6 µM | GI50 (OVCAR-3 ovarian): 9.49 µM | TGI (OVCAR-3 ovarian): 21.8 µM

CC(=O)Oc1cc(C)c2c(c1OC(C)=O)CC1(O2)[C@@H](C)CCC2[C@@]3(C)CC[C@H](OC(C)=O)C(C)(C)C3CC[C@]21C (some centres undefined)
TGI (M14 melanoma): 18.7 µM | TGI (MOLT-4 leukemia): 42.2 µM | TGI (SNB-75 CNS): 14.9 µM | TGI (NCI-H460 lung): 10.8 µM | TGI (SF-539 CNS): 7.23 µM | TGI (OVCAR-3 ovarian): 8.41 µM

Nc1nc2sc3ccccc3c(=O)n2n1
TGI (CCRF-CEM leukemia): > 100 µM | TGI (OVCAR-4 ovarian): > 100 µM | TGI (M14 melanoma): > 100 µM | TGI (MOLT-4 leukemia): > 100 µM | TGI (SNB-75 CNS): > 100 µM | TGI (NCI-H460 lung): > 100 µM | TGI (SF-539 CNS): > 100 µM | TGI (OVCAR-3 ovarian): > 100 µM

CC(=O)N1c2ccccc2C2=CC3C4C(=O)N(c5ccccc5)C(=O)C4C21C1C(=O)N(c2ccccc2)C(=O)C31 (centres undefined)
TGI (CCRF-CEM leukemia): > 100 µM | TGI (MOLT-4 leukemia): > 100 µM | TGI (SNB-75 CNS): > 100 µM | TGI (NCI-H460 lung): > 100 µM | TGI (SF-539 CNS): 6.66 µM

Cc1noc2cccc(OCc3ccccc3)c12
TGI (CCRF-CEM leukemia): > 100 µM | TGI (OVCAR-4 ovarian): > 100 µM | TGI (M14 melanoma): > 100 µM | TGI (MOLT-4 leukemia): > 100 µM | TGI (SNB-75 CNS): 87.6 µM | TGI (NCI-H460 lung): > 100 µM | TGI (SF-539 CNS): > 100 µM | TGI (OVCAR-3 ovarian): > 100 µM

CCOC(=O)/C(=N\OC)C(O)C(F)(F)F (centres undefined)
TGI (CCRF-CEM leukemia): > 100 µM | TGI (M14 melanoma): > 100 µM | TGI (MOLT-4 leukemia): > 100 µM | TGI (SNB-75 CNS): > 100 µM | TGI (PC-3 prostate): > 100 µM | TGI (MCF7 breast): > 100 µM | TGI (SF-539 CNS): > 100 µM

O=S(=O)(N/N=C/c1ccc(Cl)c(Cl)c1)c1ccccc1
TGI (CCRF-CEM leukemia): > 100 µM | TGI (OVCAR-4 ovarian): > 100 µM | TGI (M14 melanoma): > 100 µM | TGI (MOLT-4 leukemia): 84.4 µM | TGI (SNB-75 CNS): > 100 µM | TGI (SF-539 CNS): > 100 µM | TGI (OVCAR-3 ovarian): > 100 µM

Nc1cc(C(=O)O)[nH]c(=O)n1
TGI (CCRF-CEM leukemia): > 100 µM | TGI (OVCAR-4 ovarian): > 100 µM | TGI (M14 melanoma): > 100 µM | TGI (MOLT-4 leukemia): > 100 µM | TGI (PC-3 prostate): > 100 µM | TGI (MCF7 breast): > 100 µM | TGI (NCI-H460 lung): > 100 µM | TGI (OVCAR-3 ovarian): > 100 µM
